Series [1] relates to Micrococcus luteus ATCC9341. Briefly: MIC, serial dilution method in Müller-Hinton agar. To be noted: 37°C, 18 hours. It counts as cell-based. As to the method: (§1) The antibacterial activities of the cephalosporin compounds of the formula (I) according to this invention, specifically the final product compounds of the Examples 1 to 6 given hereinafter, were assayed in term of their minimum inhibitory concentrations (MIC; mcg/ml) against various test bacteria, as determined according to a standard serial dilution method in Müller-Hinton agar medium (a product of Difico company), where the incubation was made at 37°C for 18 hours. For the comparison purpose, the antibacterial spectrum of a known compound, Cefalexin (abbreviated as CEX) was also assayed in the same way as above.

Series [2] concerns Salmonella schottmulleri 8006. Briefly: MIC, serial dilution method in Müller-Hinton agar. Format: cell-based. To be noted: 37°C, 18 hours. As for the experimental part:
as §1

Series [3] concerns Pseudomonas aeruginosa IFO3445. As to the kind of experiment: MIC, serial dilution method in Müller-Hinton agar. It counts as cell-based. The conditions noted are these: 37°C, 18 hours. As to the method:
as §1

Series [4] relates to Salmonella enteritidis G14. As to the kind of experiment: MIC, serial dilution method in Müller-Hinton agar. Format: cell-based. The conditions noted are these: Salmonella enterica. As to the method:
as §1

The subject of series [5] is Bacillus subtilis ATCC6633. As to the kind of experiment: MIC, serial dilution method in Müller-Hinton agar. It counts as cell-based. To be noted: 37°C, 18 hours. As to the method:
as §1

Series [6] relates to Klebsiella oxytosa GN10560. Briefly: MIC, serial dilution method in Müller-Hinton agar. It counts as cell-based. To be noted: Klebsiella oxytosa GN10560, cefuroximase producing strain, 37°C, 18 hours. As to the method: as §1
The test system of series [7] is Staphylococcus aureus MS353. As to the kind of experiment: MIC, serial dilution method in Müller-Hinton agar. Format: cell-based. As for the experimental part:
as §1

Series [8] deals with Rms823/Escherichia coli K-12 W3630. Briefly: MIC, serial dilution method in Müller-Hinton agar. Format: cell-based. The conditions noted are these: 18 h. As for the experimental part:
as §1

For a further series, the system named is Proteus morganii IFO3848. As to the kind of experiment: MIC, serial dilution method in Müller-Hinton agar. It counts as cell-based. To be noted: Morganella morganii; Proteus morganii IFO3848; Müller-Hinton agar, 37°C, 18 hours; read-out: MIC. As to the method: as §1
Series [9] relates to Salmonella typhimurium IID971. Briefly: MIC, serial dilution method in Müller-Hinton agar. Format: cell-based. The conditions noted are these: Salmonella enterica, 18 h. As to the method: as §1
The subject of series [10] is Salmonella paratyphi 1015. Briefly: MIC, serial dilution method in Müller-Hinton agar. Format: cell-based. To be noted: Salmonella enterica, 37°C, 18 hours. As for the experimental part: as §1
Series [11] has as its system Staphylococcus aureus Terajima. As to the kind of experiment: MIC, serial dilution method in Müller-Hinton agar. Format: cell-based. To be noted: 37°C, 18 hours. As to the method: as §1
The subject of series [12] is Rms139/MI Pseudomonas aeruginosa. Briefly: MIC, serial dilution method in Müller-Hinton agar. Format: cell-based. The conditions noted are these: 18 h. As to the method: as §1
The subject of the next series is Salmonella typhi 901. As to the kind of experiment: MIC, serial dilution method in Müller-Hinton agar. To be noted: Salmonella enterica, 18 h. Format: cell-based. As for the experimental part:
as §1

Series [13] deals with Rms213/Escherichia coli K-12 W3630. As to the kind of experiment: MIC, serial dilution method in Müller-Hinton agar. To be noted: 18 h. Format: cell-based. As to the method:
as §1

In series [14] the test system is Escherichia coli NIHJ-JS-2. As to the kind of experiment: MIC, serial dilution method in Müller-Hinton agar. It counts as cell-based. To be noted: Escherichia coli, NIHJJS2, 18 h. As to the method: as §1
For series [15], the system named is Klebsiella pneumoniae PCI602. As to the kind of experiment: MIC, serial dilution method in Müller-Hinton agar. It counts as cell-based. The conditions noted are these: Klebsiella pneumoniae, PCI602, 18 h. As for the experimental part: as §1
The subject of a further series is Proteus vulgaris OX-19. As to the kind of experiment: MIC, serial dilution method in Müller-Hinton agar. It counts as cell-based. The conditions noted are these: OX19, 37°C, 18 hours. As for the experimental part:
as §1

Series [16] concerns Staphylococcus aureus FDA209P JC-1. Briefly: MIC, serial dilution method in Müller-Hinton agar. It counts as cell-based. As for the experimental part:
as §1

Another series relates to Proteus rettgeri IFO3850. As to the kind of experiment: MIC, serial dilution method in Müller-Hinton agar. It counts as cell-based. The conditions noted are these: Providencia rettgeri. As to the method: as §1
For series [17], the system named is Rms212/Escherichia coli K-12 W3630. Briefly: MIC, serial dilution method in Müller-Hinton agar. It counts as cell-based. To be noted: 18 h. As for the experimental part: as §1
Series [18] has as its system Escherichia coli K-12 C600. As to the kind of experiment: MIC, serial dilution method in Müller-Hinton agar. It counts as cell-based. The conditions noted are these: Escherichia coli, K12C600, 18 h. As to the method:
as §1

Series [19] deals with Rte16/Escherichia coli K-12 W3630. As to the kind of experiment: MIC, serial dilution method in Müller-Hinton agar. Format: cell-based. The conditions noted are these: 18 h. As for the experimental part: as §1
A short description of series [20]: Test 1: urinary recovery after oral administration. It counts as in vivo. To be noted: mice (ICR-strain, female), 300 mcg per mouse, urine collected until 5 hours after administration, microbial assay, molar percentage. As to the method: To mice (ICR-strain, female, 4 weeks-aged) was orally administered a new cephalosporin compound according to this invention at a dosage of 300 mcg per mouse. Until the end of 5 hours after oral administration of the test cephalosporin compound, all the volumes of urine discharged by the treated mice were collected together, and the total amount of the test compound remaining in the collected urine was measured by a microbial assay method. The urinary recovery of the test compound was calculated in terms of percentage of the molar quantity of the test compound as recovered, against the molar quantity of the test compound as orally given.

[21] abbreviates: Salmonella enteritidis G14, Müller-Hinton agar, 37°C, 18 hours, read-out: MIC.
Setting [22] is: Proteus rettgeri IFO3850, Müller-Hinton agar, 37°C, 18 hours, read-out: MIC.
The mark [23] stands for this setting: Staphylococcus aureus MS353, Müller-Hinton agar, 37°C, 18 hours, read-out: MIC.
Setting [24] is: Staphylococcus aureus FDA209P JC-1, Müller-Hinton agar, 37°C, 18 hours, read-out: MIC.

Values after ≈ are worked out from the molar mass of the structure shown. Read-outs that look alike come from different tables or passages of the source.

Usually MIC stands for the smallest concentration in the dilution series that meets the test's criterion for growth inhibition.

Consider `CC1=C(C(=O)O)N2C(=O)[C@@H](NC(=O)[C@H](N)c3ccccc3)[C@H]2SC1` [CEX, Cefalexin, reference compound], for which the minimum inhibitory concentration (MIC) in series [1] is 0.1 µg/mL (≈ 0.288 µM); in [2], 6.25 µg/mL (≈ 18 µM); in [3], above 100 µg/mL; in series [4] (setting [21]) it was above 100 µg/mL; in [5], 0.78 µg/mL (≈ 2.25 µM); in [6] it was above 100 µg/mL. Further, the MIC in [7] (Staphylococcus aureus, MS353, 18 h) was 3.13 µg/mL (≈ 9.01 µM); in series [8], 12.5 µg/mL (≈ 36 µM); with Proteus morganii IFO3848 it was 25 µg/mL (≈ 72 µM); in series [9] it was 6.25 µg/mL (≈ 18 µM); in series [10], 6.25 µg/mL (≈ 18 µM); in [11], 0.2 µg/mL (≈ 0.576 µM). In addition, the MIC in series [12] is above 100 µg/mL; against Salmonella typhi 901 it was 3.13 µg/mL (≈ 9.01 µM); in series [13], 12.5 µg/mL (≈ 36 µM); in series [14], 6.25 µg/mL (≈ 18 µM); in series [15], 3.13 µg/mL (≈ 9.01 µM); in the series with Proteus vulgaris OX-19, 12.5 µg/mL (≈ 36 µM). For the same molecule, the MIC in [16] (Staphylococcus aureus, FDA209P, 18 h) is 3.13 µg/mL (≈ 9.01 µM); in the series with Proteus rettgeri IFO3850 (setting [22]), 12.5 µg/mL (≈ 36 µM); in [17], 12.5 µg/mL (≈ 36 µM); in [18], 6.25 µg/mL (≈ 18 µM); in series [19] it was 12.5 µg/mL (≈ 36 µM).
For `CC1=C(C(=O)O)N2C(=O)C(NC(=O)[C@H](N)c3ccc(CO)c(O)c3)[C@H]2SC1` (stereo partly drawn) [Example 1 Compound, 7-{(R)-2-amino-2-(3-hydroxy-4-hydroxymethylphenyl)acetamido}-3-methyl-3-cephem-4-carboxylic acid], the MIC in series [1] is 0.1 µg/mL (≈ 0.254 µM); in [2], 12.5 µg/mL (≈ 31.8 µM); in [3] it was above 100 µg/mL; in series [4] (setting [21]), 50 µg/mL (≈ 127 µM); in series [5], 0.78 µg/mL (≈ 1.98 µM); in series [6] it was 100 µg/mL (≈ 254 µM). Moreover, the minimal inhibitory concentration (MIC) in series [7] (setting [23]) was 3.13 µg/mL (≈ 7.96 µM); in series [8] it was 100 µg/mL (≈ 254 µM); with Proteus morganii IFO3848 it was above 100 µg/mL; in series [9], 6.25 µg/mL (≈ 15.9 µM); in series [10] it was 12.5 µg/mL (≈ 31.8 µM); in series [11], 0.2 µg/mL (≈ 0.508 µM). Also, the MIC in [12] is above 100 µg/mL; in the series on Salmonella typhi 901, 6.25 µg/mL (≈ 15.9 µM); in [13], 12.5 µg/mL (≈ 31.8 µM); in series [14], 12.5 µg/mL (≈ 31.8 µM); in [15] it was 6.25 µg/mL (≈ 15.9 µM); with Proteus vulgaris OX-19, 100 µg/mL (≈ 254 µM). Moreover, the MIC is 3.13 µg/mL (≈ 7.96 µM) in [16] (setting [24]); 12.5 µg/mL (≈ 31.8 µM) in the series with Proteus rettgeri IFO3850 (IFO3850, 18 h); 12.5 µg/mL (≈ 31.8 µM) in series [17]; 12.5 µg/mL (≈ 31.8 µM) in series [18]; 12.5 µg/mL (≈ 31.8 µM) in [19]. In [20], this molecule yielded a dose excreted of 65.1%.
Take `COCC1=C(C(=O)O)N2C(=O)C(NC(=O)[C@H](N)c3ccc(CO)c(O)c3)[C@H]2SC1` (stereo partly drawn) [Example 2 Compound, 7-{(R)-2-amino-2-(3-hydroxy-4-hydroxymethylphenyl)acetamido}-3-methoxymethyl-3-cephem-4-carboxylic acid]: the MIC in series [1] was 0.1 µg/mL (≈ 0.236 µM); in series [2], 6.25 µg/mL (≈ 14.8 µM); in series [3], above 100 µg/mL; in series [4] (ENTERITIDIS, 18 h), 6.25 µg/mL (≈ 14.8 µM); in [5] it was 0.2 µg/mL (≈ 0.472 µM); in series [6], above 100 µg/mL. The MIC in series [7] (setting [23]) was 1.56 µg/mL (≈ 3.68 µM); in series [8] it was above 100 µg/mL; in the series with Proteus morganii IFO3848, 50 µg/mL (≈ 118 µM); in [9] it was 6.25 µg/mL (≈ 14.8 µM); in series [10], 12.5 µg/mL (≈ 29.5 µM); in [11] it was 0.2 µg/mL (≈ 0.472 µM). For the same molecule, the MIC is above 100 µg/mL in series [12]; 6.25 µg/mL (≈ 14.8 µM) in the series with Salmonella typhi 901; 12.5 µg/mL (≈ 29.5 µM) in series [13]; 12.5 µg/mL (≈ 29.5 µM) in series [14]; 6.25 µg/mL (≈ 14.8 µM) in [15]; 100 µg/mL (≈ 236 µM) against Proteus vulgaris OX-19. For the same molecule, the minimal inhibitory concentration (MIC) was found to be 1.56 µg/mL (≈ 3.68 µM) in series [16] (setting [24]); 25 µg/mL (≈ 59 µM) with Proteus rettgeri IFO3850 (setting [22]); 50 µg/mL (≈ 118 µM) in [17]; 12.5 µg/mL (≈ 29.5 µM) in series [18]; 25 µg/mL (≈ 59 µM) in series [19]. The same molecule displayed a dose excreted in series [20] of 48.3%.
